Assays:
ZR-75-1 = assay: Caspase cascade activation assay (N-(Ac-DEVD)-N'-ethoxycarbonyl-R110 fluorogenic substrate) in ZR-75-1 cells; type: cell-based; conditions: ZR-75-1 human breast cancer cells, 24 h incubation; for EC50: sigmoidal dose-response, read-out: ZR-75-1 EC50 (nM) (potency)
Experimental: (§1) Human breast cancer cell lines T-47D and ZR-75-1 were grown according to media component mixtures designated by American Type Culture Collection +10% FCS (Invitrogen Corporation), in a 5% CO2−95% humidity incubator at 37° C. T-47D and ZR-75-1 cells were maintained at a cell density between 30 and 80% confluency at a cell density of 0.1 to 0.6×10^6 cells/mL. Cells were harvested at 600×g and resuspended at 0.65×10^6 cells/mL into appropriate media +10% FCS. An aliquot of 45 μL of cells was added to a well of a 96-well microtiter plate containing 5 μL of a 10% DMSO in RPMI-1640 media solution containing 0.16 to 10 μM of 4-(3-bromo-4,5-dimethoxyphenyl)-3-cyano-4H-indolo[4,5-b]pyran (Example 1) or other test compound (0.016 to 1 μM final). An aliquot of 45 μL of cells was added to a well of a 96-well microtiter plate containing 5 μL of a 10% DMSO in RPMI-1640 media solution without test compound as the control sample. The samples were mixed by agitation and then incubated at 37° C. for 24 h in a 5% CO2-95% humidity incubator. After incubation, the samples were removed from the incubator and 50 μL of a solution containing 20 μM of N-(Ac-DEVD)-N′-ethoxycarbonyl-R110 (SEQ ID No.:1) fluorogenic substrate (Cytovia, Inc.; U.S. Pat. No. 6,335,429), 20% sucrose (Sigma), 20 mM DTT (Sigma), 200 mM NaCl (Sigma), 40 mM Na PIPES buffer pH 7.2 (Sigma), and 500 μg/mL lysolecithin (Calbiochem) was added. The samples were mixed by agitation and incubated at room temperature. Using a fluorescent plate reader (Model 1420 Wallac Instruments), an initial reading (T=0) was made approximately 1-2 min after addition of the substrate solution, employing excitation at 485 nm and emission at 530 nm, to determine the background fluorescence of the control sample. After the 3 h incubation, the samples were read for fluorescence as above (T=3 h).
(§2) The Relative Fluorescence Unit values (RFU) were used to calculate the sample readings as follows: RFU(T=3h)−Control RFU(T=0)=Net RFU(T=3h)
(§3) The activity of caspase cascade activation was determined by the ratio of the net RFU value for 4-(3-bromo-4,5-dimethoxyphenyl)-3-cyano-4H-indolo[4,5-b]pyran or other test compound to that of control samples. The EC50 (nM) was determined by a sigmoidal dose-response calculation (Prism 2.0, GraphPad Software Inc.).

T-47D = assay: Caspase cascade activation assay (N-(Ac-DEVD)-N'-ethoxycarbonyl-R110 fluorogenic substrate) in T-47D cells; type: cell-based; conditions: T-47D human breast cancer cells, 24 h incubation; ratio of net RFU of compound to control
Experimental: as §1, §2, §3

SMILES | EC50 (ZR-75-1) | T-47D Ratio (caspase activity) (T-47D) | ZR-75-1 Ratio (caspase activity) (ZR-75-1; ratio of net RFU of compound to control)
COc1cccc(C2=CC(C)(C)Oc3cc(OC)ccc32)c1 | > 10000 nM |  | 
COc1cccc(C2=C(Br)C(C)(C)Oc3cc(OC)ccc32)c1 | > 10000 nM |  | 
COc1ccc(C2c3ccc(N(C)C)cc3OC(OCCCN)C2Br)cc1OC (centres unmarked) | > 10000 nM |  | 
COc1cc(C2CCOc3cc(N(C)C)ccc32)cc(Br)c1OC (centres unmarked) | > 10000 nM |  | 
COc1ccc2c(c1)OC(OCCN)CC2c1cc(OC)c(OC)c(OC)c1 (centres unmarked) | > 1000 nM |  | 
OC1CC(c2cc(Cl)cc(Cl)c2)c2ccc3cnccc3c2O1 (centres unmarked) | > 1000 nM |  | 
COc1ccc(C2CC(=O)Oc3cc(OC)c(OC)c(OC)c32)cc1 (centres unmarked) | > 10000 nM |  | 
OC1CC(c2cc(Cl)cc(Cl)c2)c2ccc3[nH]ccc3c2O1 (centres unmarked) | > 1000 nM |  | 
COc1ccc(C2CC(=O)Oc3cc(OC)c(OC)c(OC)c32)cc1OC (centres unmarked) | > 1000 nM |  | 
COc1cc(C2CC(OC)Oc3cc(N)ccc32)cc(Br)c1OC (centres unmarked) | > 1000 nM |  | 
COC1CC(c2cc(Cl)cc(Cl)c2)c2ccc(N)cc2O1 (centres unmarked) | > 10000 nM | 1.2 | 
COc1ccc(C2CC(=O)Oc3c2cc(OC)c(OC)c3OC)cc1 (centres unmarked) | 2650 nM | 5.7 | 
CC(=O)Nc1ccc2c(c1)OC(O)CC2c1cc(Cl)cc(Cl)c1 (centres unmarked) | > 10000 nM |  | 
COc1cc(C2C(C#N)=COc3c2ccc2[nH]ccc32)cc(Br)c1OC (centres unmarked) [Example 1, 4-(3-Bromo-4,5-dimethoxyphenyl)-3-cyano-4H-indolo[4,5-b]pyran] | 32 nM | 7.3 | 
COc1cc(C2C(C#N)=COc3cc(N(C)C)ccc32)cc(Br)c1OC (centres unmarked) [Example 2, 4-(3-Bromo-4,5-dimethoxyphenyl)-3-cyano-7-dimethylamino-4H-chromene] | 30 nM | 5.5 | 
Cn1ccc2c3c(ccc21)C(c1cncc(Br)c1)C(C#N)=CO3 (centres unmarked) [Example 3, 4-(5-Bromo-pyridin-3-yl)-3-cyano-7-methyl-4H-indolo[4,5-b]pyran] | 3 nM | 5.1 | 
COc1cc(C2C(C#N)=COc3c2ccc2c3ccn2C)cc(Br)c1OC (centres unmarked) [Example 4, 4-(3-Bromo-4,5-dimethoxyphenyl)-3-cyano-7-methyl-4H-indolo[4,5-b]pyran] | 2.2 nM | 5.9 | 
CCn1ccc2c3c(ccc21)C(c1cc(Br)c(OC)c(OC)c1)C(C#N)=CO3 (centres unmarked) [Example 5, 4-(3-Bromo-4,5-dimethoxyphenyl)-3-cyano-7-ethyl-4H-indolo[4,5-b]pyran] | 18 nM | 3.6 | 
N#CC1=COc2ccccc2C1c1ccccc1 (centres unmarked) [Example 6, 3-Cyano-4-phenyl-4H-chromene] | 2940 nM | In-active | In-active
COc1cc(C2C(C#N)=COc3c2ccc2c3oc(=O)n2C)cc(Br)c1OC (centres unmarked) [Example 7] | 14 nM | 6.7 | 
COc1ccc2c(c1)OC=C(C#N)C2c1cc(OC)c(OC)c(OC)c1 (centres unmarked) [Example 8, 3-Cyano-7-methoxy-4-(3,4,5-trimethoxyphenyl)-4H-chromene] | 210 nM | 6.7 | 

SMILES | EC50 (ZR-75-1) | T-47D Ratio (caspase activity) (T-47D) | ZR-75-1 Ratio (caspase activity) (ZR-75-1; ratio of net RFU of compound to control)
COc1cc(C2=CCOc3cc(N(C)C)ccc32)cc(OC)c1OC [Example 9, 7-Dimethylamino-4-(3,4,5-trimethoxyphenyl)-2H-chromene] | 177 nM | 7.8 | 
COc1cc(C2=C(Cl)COc3cc(N(C)C)ccc32)cc(OC)c1OC [Example 10, 3-Chloro-7-dimethylamino-4-(3,4,5-trimethoxyphenyl)-2H-chromene] | 280 nM | 8.2 | 
COc1ccc2c(c1)OCC(C#N)C2c1cc(OC)c(OC)c(OC)c1 (centres unmarked) [Example 11, 3-Cyano-7-methoxy-4-(3,4,5-trimethoxyphenyl)-chroman] | 101 nM | 9.6 | 
COc1ccc2c(c1)OC(=O)C(C#N)C2c1cc(OC)c(OC)c(OC)c1 (centres unmarked) [Example 13, 3-Cyano-7-methoxy-2-oxo-4-(3,4,5-trimethoxyphenyl)-chroman] | 67 nM | 4.3 | 
COc1cc(C2c3ccc4[nH]ccc4c3OC(=O)C2C#N)cc(Br)c1OC (centres unmarked) [Example 14, 4-(3-Bromo-4,5-dimethoxyphenyl)-3-cyano-2-oxo-pyrrolo[2,3-h]chroman] | 278 nM | 4.8 | 
COc1cc(C2CC(O)Oc3cc(N(C)C)ccc32)cc(Br)c1OC (centres unmarked) [Example 15, 4-(3-Bromo-4,5-dimethoxyphenyl)-7-dimethylamino-2-hydroxy-chroman] | 15 nM | 14.6 | 
COc1cc(C2CC(OC)Oc3cc(N(C)C)ccc32)cc(Br)c1OC (centres unmarked) [Example 16, 4-(3-Bromo-4,5-dimethoxyphenyl)-7-dimethylamino-2-methoxy-chroman] | 275 nM | 6.8 | 
COc1cc(C2CC(OC(C)=O)Oc3cc(N(C)C)ccc32)cc(Br)c1OC (centres unmarked) [Example 17, 2-Acetoxy-4-(3-bromo-4,5-dimethoxyphenyl)-7-dimethylamino-chroman] | 29 nM | 5.2 | 
COc1cc(C2CC(O)Oc3c2ccc2c3ccn2C)cc(Br)c1OC (centres unmarked) [Example 18, 4-(3-Bromo-4,5-dimethoxyphenyl)-2-hydroxy-7-methyl-pyrrolo[2,3-h]chroman] | 7.8 nM | 6.0 | 
COc1cc(C2CC(OC)Oc3c2ccc2c3ccn2C)cc(Br)c1OC (centres unmarked) [Example 19, 4-(3-Bromo-4,5-dimethoxyphenyl)-2-methoxy-7-methyl-pyrrolo[2,3-h]chroman] | 48 nM | 4.5 | 
COc1cc(C2CC(OC(C)=O)Oc3c2ccc2c3ccn2C)cc(Br)c1OC (centres unmarked) [Example 20, 2-Acetoxy-4-(3-bromo-4,5-dimethoxyphenyl)-7-methyl-pyrrolo[2,3-h]chroman] | 3 nM | 4.7 | 
COc1cc(C2CC(=O)Oc3c2ccc2c3ccn2C)cc(Br)c1OC (centres unmarked) [Example 21, 4-(3-Bromo-4,5-dimethoxyphenyl)-7-methyl-pyrrolo[2,3-h]chroman-2-one] | 127 nM | 6.2 | 
COc1cc(C2CCOc3c2ccc2c3ccn2C)cc(Br)c1OC (centres unmarked) [Example 22, 4-(3-Bromo-4,5-dimethoxyphenyl)-7-methyl-pyrrolo[2,3-h]chroman] | 48 nM | 6.5 | 
COc1ccc2c(c1)OC(O)CC2c1cc(OC)c(OC)c(OC)c1 (centres unmarked) [Example 23, 7-Methoxy-2-hydroxy-4-(3,4,5-trimethoxyphenyl)-chroman] | 23 nM | 6.0 | 
COc1cc(C2CC(O)Oc3c2ccc2[nH]ccc32)cc(Br)c1OC (centres unmarked) [Example 24, 4-(3-Bromo-4,5-dimethoxyphenyl)-2-hydroxy-pyrrolo[2,3-h]chroman] | 55 nM | 2.5 | 
COc1cc(C2CC(O)Oc3c2ccc2c3ccn2C)cc(OC)c1OC (centres unmarked) [Example 25, 2-Hydroxy-7-methyl-4-(3,4,5-trimethoxyphenyl)-pyrrolo[2,3-h]chroman] | 4 nM | 10.1 | 
COc1cc(C2CC(O)Oc3c2ccc2cnccc32)cc(Br)c1OC (centres unmarked) [Example 26, 4-(3-Bromo-4,5-dimethoxyphenyl)-2-hydroxy-pyrido[3,4-h]chroman] | > 1000 nM | 1.1 | 
COc1cc(C2CC(O)Oc3cc(NC(C)=O)ccc32)cc(Br)c1OC (centres unmarked) [Example 27, N-[4-(3-Bromo-4,5-dimethoxyphenyl)-2-hydroxy-chroman-7-yl]-acetamide] | 548 nM | 1.3 | 
COc1cc(C2CC(O)Oc3c2ccc2cccnc32)cc(Br)c1OC (centres unmarked) [Example 28, 4-(3-Bromo-4,5-dimethoxyphenyl)-2-hydroxy-pyrido[3,2-h]chroman] | 344 nM | 6.5 | 
COc1cc(C2CC(O)Oc3c2ccc2[nH]c(=O)[nH]c32)cc(Br)c1OC (centres unmarked) [Example 29, 4-(3-Bromo-4,5-dimethoxyphenyl)-7,9-dihydro-2-hydroxy-8-oxo-imidazolo[4,5-h]chroman] | 360 nM | 6.0 | 
COc1cc(C2CC(O)Oc3c2ccc2cc[nH]c32)cc(Br)c1OC (centres unmarked) [Example 30, 4-(3-Bromo-4,5-dimethoxyphenyl)-2-hydroxy-pyrrolo[3,2-h]chroman] | 379 nM | 6.8 | 

Reference: patent US7476741B2, “Substituted 4H-chromens, 2H-chromenes, chromans and analogs as activators of caspases and inducers of apoptosis and the use thereof” (Cytovia, Inc., priority 2002, dated 2009)
